According to patent publication US12318382B2, “Methods of treating rheumatic diseases using trimetazidine-based compounds” (IMBRIA PHARMACEUTICALS, INC., priority 2018, dated 2025):

Assay: Stability of CV-8972 in aqueous solution at different concentrations and pH
Type: physicochemical
Description: The stability of CV-8972 was analyzed. Aqueous samples containing CV-8972 at different concentrations and pH were incubated for various periods and analyzed.
Form A of CV-8972 were analyzed for stability in aqueous solution. Aqueous samples containing CV-8972 at different concentrations and pH were incubated for various periods and analyzed.

COc1ccc(CN2CCN(CCOC(=O)c3cccnc3)CC2)c(OC)c1OC [CV-8972, 2-(4-(2,3,4-trimethoxybenzyl)piperazin-1-yl)ethyl nicotinate]
Retention Time 5.6 (purity of CV-8972) (276-MBA-172 2 mg/mL pH 6 (Form A), 0 hrs): 98.01
Retention Time 5.6 (purity of CV-8972) (276-MBA-172 2 mg/mL pH 6 (Form A), 1 hrs): 97.22
Retention Time 5.6 (purity of CV-8972) (276-MBA-172 2 mg/mL pH 6 (Form A), 4 hrs): 97.01
Retention Time 5.6 (purity of CV-8972) (276-MBA-172 2 mg/mL pH 6 (Form A), 6 hrs): 96.51
Retention Time 5.6 (purity of CV-8972) (276-MBA-172 2 mg/mL pH 7 (Form A), 0 hrs): 97.53
Retention Time 5.6 (purity of CV-8972) (276-MBA-172 2 mg/mL pH 7 (Form A), 1 hrs): 95.06
Retention Time 5.6 (purity of CV-8972) (276-MBA-172 2 mg/mL pH 7 (Form A), 4 hrs): 93.7
Retention Time 5.6 (purity of CV-8972) (276-MBA-172 2 mg/mL pH 7 (Form A), 6 hrs): 92.12
Retention Time 5.6 (purity of CV-8972) (276-MBA-172 2 mg/mL pH 7 (Form A), 22 hrs): 91.07
Retention Time 5.6 (purity of CV-8972) (276-MBA-172 10 mg/mL pH 6 (Form A), 0 hrs): 95.24
Retention Time 5.6 (purity of CV-8972) (276-MBA-172 10 mg/mL pH 6 (Form A), 1 hrs): 93.43
Retention Time 5.6 (purity of CV-8972) (276-MBA-172 10 mg/mL pH 6 (Form A), 4 hrs): 91.82
Retention Time 5.6 (purity of CV-8972) (276-MBA-172 10 mg/mL pH 6 (Form A), 6 hrs): 91.8
Retention Time 5.6 (purity of CV-8972) (276-MBA-172 10 mg/mL pH 6 (Form A), 22 hrs): 89.66
Retention Time 5.6 (purity of CV-8972) (276-MBA-172 10 mg/mL pH 7 (Form A), 0 hrs): 92.85
Retention Time 5.6 (purity of CV-8972) (276-MBA-172 10 mg/mL pH 7 (Form A), 1 hrs): 89.05
Retention Time 5.6 (purity of CV-8972) (276-MBA-172 10 mg/mL pH 7 (Form A), 4 hrs): 86.8
Retention Time 5.6 (purity of CV-8972) (276-MBA-172 10 mg/mL pH 7 (Form A), 6 hrs): 84.79
Retention Time 5.6 (purity of CV-8972) (289-MBA-15-A 2 mg/mL pH 6 (Form B), 0 hrs): 97.48
Retention Time 5.6 (purity of CV-8972) (289-MBA-15-A 2 mg/mL pH 6 (Form B), 1 hrs): 95.1
Retention Time 5.6 (purity of CV-8972) (289-MBA-15-A 2 mg/mL pH 6 (Form B), 4 hrs): 92.45
Retention Time 5.6 (purity of CV-8972) (289-MBA-15-A 2 mg/mL pH 6 (Form B), 6 hrs): 90.65
Retention Time 5.6 (purity of CV-8972) (289-MBA-15-A 2 mg/mL pH 6 (Form B), 22 hrs): 89.15
Retention Time 5.6 (purity of CV-8972) (289-MBA-15-A 2 mg/mL pH 7 (Form B), 0 hrs): 97.48
Retention Time 5.6 (purity of CV-8972) (289-MBA-15-A 2 mg/mL pH 7 (Form B), 1 hrs): 95.46
Retention Time 5.6 (purity of CV-8972) (289-MBA-15-A 2 mg/mL pH 7 (Form B), 4 hrs): 93.92
Retention Time 5.6 (purity of CV-8972) (289-MBA-15-A 10 mg/mL pH 6 (Form B), 0 hrs): 95.36
Retention Time 5.6 (purity of CV-8972) (289-MBA-15-A 10 mg/mL pH 6 (Form B), 1 hrs): 94.81
Retention Time 5.6 (purity of CV-8972) (289-MBA-15-A 10 mg/mL pH 6 (Form B), 4 hrs): 94.69
Retention Time 5.6 (purity of CV-8972) (289-MBA-15-A 10 mg/mL pH 6 (Form B), 6 hrs): 94.39
Retention Time 5.6 (purity of CV-8972) (289-MBA-15-A 10 mg/mL pH 6 (Form B), 22 hrs): 93.93
Retention Time 5.6 (purity of CV-8972) (289-MBA-15-A 10 mg/mL pH 7 (Form B), 0 hrs): 91.5
Retention Time 5.6 (purity of CV-8972) (289-MBA-15-A 10 mg/mL pH 7 (Form B), 1 hrs): 86.18
Retention Time 5.6 (purity of CV-8972) (289-MBA-15-A 10 mg/mL pH 7 (Form B), 4 hrs): 82.36
Retention Time 5.6 (purity of CV-8972) (289-MBA-15-A 10 mg/mL pH 7 (Form B), 6 hrs): 79.37
